# Assay results from patent US20060275744A1, “Modified human embryonic stem cells and methods of use to treat neuron-associated disorders” (THE TRUSTEES OF COLUMBIA UNIVERSITY IN THE CITY OF NEW YORK, priority 2004, published 2006).
# How the values were obtained:
# [1] = test system: DJ-1 deficient dopamine neurons; experiment: 6-OHDA exposure of ES-derived dopamine neuron cultures, dopamine uptake assay; format: cell-based, murine; conditions: cultures at 9 DIV, 72 hours exposure
# Text: FIG. 14. DJ-1 Deficient ES Cultures Display Reduced Dopamine Neuron Production. (A) The SDIA coculture method. ES cells are cocultured with mouse stromal cells (MS5) in the absence of serum and LIF for 18 days in vitro (DIV). (B) Dopamine neuron production was quantified at 18 DIV by [^3H] dopamine uptake assay. DJ-1 deficient ES cultures were defective relative to heterozygous control cultures. (C-D) Neuron production was quantified by immunohistochemical analysis as a percent of Tuj1-positive colonies that express tyrosine hydroxylase (TH) or GAB A. Quantification of TH and GABA immunostaining was performed on all colonies in each of three independent wells. Colonies were scored as positive if any immunostained cells were present. […] (F) Kinetic analysis of dopamine neuron differentiation in DJ-1 deficient cultures (clone 32, solid square) and heterozygous controls (open circle) as quantified by dopamine uptake assay. […] Dopamine neurons were quantified by dopamine uptake assay. Data represent the means±SEM and were analyzed by ANOVA followed by Fisher's post-hoc test. *, p≦0.05.
# To investigate the role of DJ-1 in the oxidative stress response in vivo, DJ-1-deficient homozygous mutant (‘knockout’) cells and DJ-1 heterozygote (‘control’) ES cell clones were analyzed for cell viability in the context of increasing concentrations of H2O2. […]
# DJ-1 deficient ES cells = experiment: Toxin exposure of DJ-1 deficient versus heterozygous ES cells (MTT, Annexin V/PI FACS, PARP, DHR, protein carbonyls); format: cell-based, murine; conditions: for sensitivity of DJ-1 deficient cells to toxin relative to heterozygous cells (cell viability, MTT): 15 hours exposure
# Experimental: We generated cells deficient in DJ-1. cDNA for DJ-1 was PCR amplified from human liver cDNA (Clontech) and cloned into the expression vectors pET-28a (Novagen) or pcDNA3.1 (Invitrogen) using standard techniques. Flag-DJ-1 and all described mutants were generated by PCR-mediated mutagenesis. For protein carbonyl quantization (Bian et al. 2003), cells were plated (1.4×10^5 cells per well), grown for 24 hours, and then treated with 10 mM H2O2 as indicated. Cleared lysate ([…]) from each time point was added to 2 M HCl ([…]) with or without 10 mM DNPH and incubated for 1 h at 24° C. with shaking. Proteins were then TCA precipitated and resuspended in […] 6M Guanidinium Chloride. Absorbance was measured at 360 nm, and DNP-conjugated samples were normalized for protein concentration with the underivitized control samples. Undifferentiated ES cells were cultured using standard techniques (Abeliovich et al. 2000). SDIA differentiation of ES cultures was performed as described (Kawasaki et al. 2000) except that ES cells were plated at a density of 500 cells/cm^2 and cocultured with the MS5 mouse stromal cell line (Barberi et al. 2003). Transfections were performed using Lipofectamine 2000 (Life Technologies) for 18-36 hours as per the manufacturer's instructions (Staropoli et al. 2003). Primary cultures and infections were performed as described (Staropoli et al. 2003). A murine embryonic stem (ES) cell clone, F063A04, that harbors a retroviral insertion at the DJ-1 locus was obtained through the German Gene Trap Consortium (http://tikus.gsf.de) (Floss and Wurst 2002). The pT1ATGβgeo gene trap vector is present between exons 6 and 7 of the murine DJ-1 gene, as determined by cDNA sequencing of trapped transcripts and genomic analysis (FIG. 12A). This integration is predicted to disrupt the normal splicing of DJ-1, leading to the generation of a truncated protein that lacks the carboxy-terminal domain required for dimerization and stability. Of note, a mutation that encodes a similarly truncated protein (at the human DJ-1 exon 7 splice acceptor) has been described in a patient with early-onset PD (Hague et al. 2003).
# To investigate the role of DJ-1 in the oxidative stress response in vivo, DJ-1-deficient homozygous mutant (‘knockout’) cells and DJ-1 heterozygote (‘control’) ES cell clones were analyzed for cell viability in the context of increasing concentrations of H2O2. ES cells plated in 96-well format (2.3×10^4 cells/well) were treated for 15 hours with H2O2 in ES media deficient in b-mercaptoethanol (Abeliovich et al. 2000). Cell viability (as a percent of untreated control) was determined by MTT assay in triplicate (Fezoui et al. 2000). Annexin V/Propidium Iodide (Molecular probes) staining was performed per the manufacturer's instructions. For dihydrorhodamine-123 staining (DHR, Molecular probes) (Walrand et al. 2003), cells were preincubated for 30 min with DHR ([…]), washed with PBS, then treated with H2O2 in ES media deficient in b-mercaptoethanol for 15 min at 37° C. The FACS analysis was performed using a FACSTAR sorter (Becton Dickinson). Dopamine uptake assays were performed essentially as described in Farrer et al. 1998. Reported values represent specific uptake from which non-specific uptake, determined in the presence of mazindol, was subtracted, and normalized for protein content (BCA kit, Pierce).
# Heterozygous cells were used as controls because the ‘knockout’ subclones were derived from these. Cell viability was initially determined by MTT assay in triplicate (Fezoui et al. 2000). […] The increase in AV-positive cells implicated an apoptotic mechanism of cell death (FIG. 12F).
# We quantified the accumulation of ROS in response to H2O2 treatment in mutant and heterozygous control cells using the ROS-sensitive fluorescent indicator dye dihydrorhodamine-123 (DHR) and FACS analysis. […]
# DY1 ES cells = experiment: Candidate soluble factors in EB or SDIA differentiation of DY1 ES cells; format: cell-based, mouse; conditions: for eYFP fluorescence or DAT immunoreactivity: factors added at stages 4-5 of differentiation
# Experimental: FIG. 11. Effect of different soluble factors on the differentiation of DY1 into dopamine neurons with the EB method. (A) eYFP fluorescence or (B) DAT immunoreactivity was quantified by fluorescent confocal microscopy, see text for details. Data represent the mean±SEM. All results were analyzed by ANOVA. The level of significance is indicated where * p≦0.05 and ** p≦0.005.
# We used marked ES-derived ‘late’ dopamine neurons to analyze candidate soluble and cell-associated factors in the differentiation process. […] Briefly, DY1 ES cells were differentiated using EB or SDIA and candidate factors were added to the standard differentiation protocol at stages 4-5 of differentiation (Lee et al., 2000).
# We have tested additional candidate factors that are implicated in the differentiation of dopamine neurons and other CNS neuron classes. For instance, the Notch pathway plays an inhibitory role in early neuronal fate determination in uncommitted proliferative cells including neuronal stem cells (Bixby et al., 2002), as well as inhibitory roles in later events such as neurite outgrowth (Berezovska et al., 1999) in hippocampal cells. […] Another multifunctional factor in the early and late determination of neurons is neuregulin, which inhibits neurogenesis early but subsequently plays a role promoting synapse formation at certain CNS and PNS synapses (Buonanno and Fischbach, 2001). Neuregulin1-β1 appears to have increased the propensity of ES cultures to differentiate into DAT-positive cells.
# Nurr1 + PitX3 = Nurr1 + PitX3 (Homo sapiens, UniProt P43354;O75364 P43354:1-598,O75364:1-302); experiment: EMSA; cooperative binding of Nurr1 and PitX3; conditions: tags: reticulocyte lysate; also nuclear extracts of EB-differentiated ES cultures; annealed oligonucleotides with overhangs
# Experimental: Electrophoretic mobility shift assays (EMSA) were performed using an EMSA kit (Novagen) as per the manufacturer's instructions with annealed oligonucleotides for wild-type human DAT promoter sequences (5′-GTCTACTGGATAAGAGCCCGAGGCCGAGGCTGAGACCG-3′ (SEQ ID NO:14) and 5′-CTCAGCCTCGGCCTCGGGCTCTTATCCAGTAGACAGGGT-3′ (SEQ ID NO:15)) or mutant human DAT promoter sequences (5′-GTCTACTGGATGGGAGCCCGATTCCGAGGCTGAGACCG-3′ (SEQ ID NO:16) and 5′-CTCAGCCTCGGAATCGGGCTCCCATCCAGTAGACAGGGT-3′ (SEQ ID NO:17)).
# MM13 cells = experiment: GDNF and BDNF treatment of virally transduced MM13 cells, real-time rtPCR; format: cell-based, murine; conditions: 10 ng/ml during EB stage 4
# Experimental: FIG. 23. PitX3 and Nurr1 coordinately regulate extrinsic factor signaling pathways in EB-differentiated ES cultures. […] (B) PitX3 and Nurr1 co-overexpression expands cells that are sensitive to BDNF and GDNF treatment as quantified by rtPCR for the late marker DAT but not the early marker TH. […] Virally transduced MM13 cells were treated with GDNF and BDNF (both 10 ng/ml, from R&D system) during EB stage 4; real-time rtPCR levels are presented as a percentage of the value obtained double (Nurr1 and PitX3) transduction after normalization with β-actin.
molecule,measurement,setting,value
"NCCc1cc(O)c(O)cc1O [6-OHDA, 6-hydroxydopamine]",sensitivity of DJ-1 deficient dopamine neurons to oxidative stress (dopamine uptake assay),[1],increased sensitivity
"OO [H2O2, hydrogen peroxide]",accumulation of protein carbonyls,DJ-1 deficient ES cells,normal
same,protein carbonyl accumulation,DJ-1 deficient ES cells,robustly increased
same,"initial ROS accumulation (DHR, FACS)","DJ-1 deficient ES cells; 15 minutes after stimulation, DJ-1 deficient versus heterozygous cells",unaltered
same,"sensitivity of DJ-1 deficient cells to toxin relative to heterozygous cells (cell viability, MTT)",DJ-1 deficient ES cells,significantly greater toxicity in DJ-1 deficient cells
same,cleavage of Poly(ADP-ribose)polymerase-1 (PARP),DJ-1 deficient ES cells; knockout cells,potentiated cleavage
same,"cell death, Annexin V and propidium iodide FACS",DJ-1 deficient ES cells; knockout relative to heterozygous cells,increased cell death of knockout cells
"[Cl][Cu][Cl] [copper, CuCl2]","sensitivity of DJ-1 deficient cells to toxin relative to heterozygous cells (cell viability, MTT)",DJ-1 deficient ES cells,sensitized
C[C@@H]1C[C@@H]([C@H](O)CC2CC(=O)NC(=O)C2)C(=O)[C@@H](C)C1 [cycloheximide],"sensitivity of DJ-1 deficient cells to toxin relative to heterozygous cells (cell viability, MTT)",DJ-1 deficient ES cells,did not observe altered sensitivity
CC(=O)N[C@@H](CSC(=O)[C@]1([C@@H](O)C(C)C)NC(=O)[C@H](C)[C@@H]1O)C(=O)O [lactacystin],"sensitivity of DJ-1 deficient cells to toxin relative to heterozygous cells (cell viability, MTT)",DJ-1 deficient ES cells,sensitized
CN[C@@H]1C[C@H]2O[C@@](C)([C@@H]1OC)n1c3ccccc3c3c4c(c5c6ccccc6n2c5c31)C(=O)NC4 [staurosporine],"sensitivity of DJ-1 deficient cells to toxin relative to heterozygous cells (cell viability, MTT)",DJ-1 deficient ES cells,did not observe altered sensitivity
Jagged: soluble receptor Jagged (R&D Systems) protein used to inhibit Notch signaling,terminally differentiated dopamine neurons,DY1 ES cells; inhibiting Notch signaling with soluble protein,significant increase
Sonic Hedgehog,eYFP fluorescence or DAT immunoreactivity,DY1 ES cells,significant increase
tunicamycin,"sensitivity of DJ-1 deficient cells to toxin relative to heterozygous cells (cell viability, MTT)",DJ-1 deficient ES cells,did not observe altered sensitivity
"FGF-8: fibroblast growth factor-8, candidate soluble factor added to ES differentiation (protein, UniProt P55075 23-233, looked up) Fibroblast growth factor 8: QEGPGRGPALGRELASLFRAGREPQGVSQQHVREQSLVTDQLSRRLIRTYQLYSRTSGKHVQVLANKRINAMAEDGDPFAKLIVETDTFGSRVRVRGAETGLYICMNKKGKLIAKSNGKGKDCVFTEIVLENNYTALQNAKYEGWYMAFTRKGRPRKGSKTRQHQREVHFMKRLPRGHHTTEQSLRFEFLNYPPFTRSLRGSQRTWAPEPR",eYFP fluorescence or DAT immunoreactivity,DY1 ES cells,significant increase
human DAT promoter wild-type EMSA oligo (dsDNA) DNA 1: GTCTACTGGATAAGAGCCCGAGGCCGAGGCTGAGACCG DNA 2: CTCAGCCTCGGCCTCGGGCTCTTATCCAGTAGACAGGGT,binding result,Nurr1 + PitX3,binds
"GDNF: glial cell-line-derived neurotrophic factor, from R&D system (protein, UniProt P39905 78-211, looked up) Glial cell line-derived …: SPDKQMAVLPRRERNRQAAAANPENSRGKGRRGQRGKNRGCVLTAIHLNVTDLGLGYETKEELIFRYCSGSCDAAETTYDKILKNLSRNRRLVSDKVGQACCRPIAFDDDLSFLDDNLVYHILRKHSAKRCGCI",expression of Nurr1 and PitX3,MM13 cells,fails to induce
"BDNF: brain-derived neurotrophic factor, from R&D system (protein, UniProt P23560 19-247, looked up) Neurotrophic factor BDNF …: APMKEANIRGQGGLAYPGVRTHGTLESVNGPKAGSRGLTSLADTFEHVIEELLDEDQKVRPNEENNKDADLYTSRVMLSSQVPLEPPLLFLLEEYKNYLDAANMSMRVRRHSDPARRGELSVCDSISEWVTAADKKTAVDMSGGTVTVLEKVPVSKGQLKQYFYETKCNPMGYTKEGCRGIDKRHWNSQCRTTQSYVRALTMDSKKRIGWRFIRIDTSCVCTLTIKRGR",expression of Nurr1 and PitX3,MM13 cells,fails to induce
